Target: T1, C5a anaphylatoxin chemotactic receptor 1 (Homo sapiens, UniProt P21730)
T1 sequence (P21730 whole entry): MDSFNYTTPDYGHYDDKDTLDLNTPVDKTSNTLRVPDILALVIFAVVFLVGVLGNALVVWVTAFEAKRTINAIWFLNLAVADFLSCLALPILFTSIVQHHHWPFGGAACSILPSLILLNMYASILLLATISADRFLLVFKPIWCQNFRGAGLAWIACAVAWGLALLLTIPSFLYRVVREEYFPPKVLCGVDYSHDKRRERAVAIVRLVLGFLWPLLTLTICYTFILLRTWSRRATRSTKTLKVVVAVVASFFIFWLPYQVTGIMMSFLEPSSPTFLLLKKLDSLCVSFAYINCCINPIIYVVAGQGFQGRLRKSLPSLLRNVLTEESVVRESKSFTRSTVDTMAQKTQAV
Test: FLIPR Assay: Compounds were tested for their ability to inhibit C5a-mediated calcium mobilization using a stable cell line over expressing the human C5aR & the Galpha 15 protein on the FLIPR (Fluorescent Imaging Plate Reader) Tetra system. Cells were maintained in culture media containing DMEM (Dulbecco's Modified Eagle Medium) with 4.5 g/L glucose, 10% fetal bovine serum, 100 U/mL, 1x non-essential amino acid, and 250 ug/mL G418 (Geneticin). Prior to testing of compounds, cells were plated at 10,000 cells/well in clear bottom 384-well black plate, and incubated overnight at 37C. with 5% CO2. On the day of experiment, culture media was removed, and replaced with assay buffer HBSS (Hanks' Balanced Salt Solution) with 20 mM HEPES (4-(2-hydroxyethyl)-1-piperazineethanesulfonic acid) and 0.1% BSA (bovine serum albumin) BSA containing calcium 5 dye (Molecular Devices) and 2.5 mM probenecid. After 1 hour incubation at 37C., 5% CO2 for 60 min, cells were pre-incubated with compounds for 30 minutes.
Assay type: functional

CO[C@H]1CCN(c2nc(-c3c(Cl)cnc4[nH]ccc34)nc3c2CN(c2cc(C4CC4)ccc2C)CC3)CC1(C)C
IC50: 0.047 µM

CO[C@@H]1CCN(c2nc(-c3c(C)ccc4[nH]nc(C)c34)nc3c2CN(c2c(Cl)c(C(C)C)nn2C)CC3)[C@H](C)C1
IC50: 0.002 µM
